Data taken from US20260138958A1, “SUBSTITUTED N-PHENYLURACILS AND SALTS THEREOF, AND USE THEREOF AS HERBICIDAL ACTIVE SUBSTANCES” (Bayer Aktiengesellschaft, priority 2022, published 2026).

Assays:
Assay type in all cases: in vivo
[1] = tested on: Abutilon theophrasti (ABUTH); test: Post-emergence herbicidal action, greenhouse pot test
Summary of the method: (§1)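 Foliar spray on one-leaf-stage pot plants in sandy loam (WP or EC, 0.5% additive, 600 l/ha water), then about 3 weeks under optimum greenhouse conditions before visual scoring on a 0–100% scale against untreated controls, where 100% means plant death.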

[2] = tested on: Alopecurus myosuroides (ALOMY); test: as above; settings: 20 g/ha
Summary of the method: as §1

[3] = tested on: Amaranthus retroflexus (AMARE); test: as above
Summary of the method: as §1

[4] = tested on: Bassia scoparia (KCHSC); test: as above
Summary of the method: as §1

[5] = tested on: Digitaria sanguinalis (DIGSA); test: as above
Summary of the method: as §1

[6] = tested on: Echinochloa crus-galli (ECHCG); test: as above
Summary of the method: as §1

[7] = tested on: Lolium rigidum (LOLRI); test: as above
Summary of the method: as §1

[8] = tested on: Pharbitis purpurea (PHBPU); test: as above
Summary of the method: as §1

[9] = tested on: Polygonum convolvulus (POLCO); test: as above
Summary of the method: as §1

[10] = tested on: Setaria viridis (SETVI); test: as above
Summary of the method: as §1

[11] = tested on: Tripleurospermum inodorum (MATIN); test: as above; settings: 20 g/ha
Summary of the method: as §1

[12] = tested on: Veronica persica (VERPE); test: as above
Summary of the method: as §1

[13] = tested on: Viola tricolor (VIOTR); test: as above
Summary of the method: as §1

[14] = tested on: Triticum aestivum (TRZAS); test: Post-emergence crop plant compatibility, greenhouse pot test
Summary of the method: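 Crops grown in sandy loam in the greenhouse were sprayed post-emergence at the one-leaf stage, 2–3 weeks after sowing, with WP or EC formulations plus 0.5% additive at 600 l/ha water. Damage was rated visually after about 3 weeks against untreated controls (0% = like control, 100% = dead).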

[15] = crop plant, post-emergence, 1.25 g/ha

Structure (SMILES)	Post-emergence effect at 1.25 g/ha against ABUTH in % [1]	Post-emergence effect at 5 g/ha against ABUTH in % ([1]; 5 g/ha)	Post-emergence effect at 20 g/ha against ABUTH in % ([1]; 20 g/ha)	Post-emergence effect at 20 g/ha against ALOMY in % [2]	Post-emergence effect at 1.25 g/ha against AMARE in % ([3]; 1.25 g/ha)	Post-emergence effect at 5 g/ha against AMARE in % ([3]; 5 g/ha)	Post-emergence effect at 20 g/ha against AMARE in % ([3]; 20 g/ha)	Post-emergence effect at 1.25 g/ha against KCHSC in % [4]	Post-emergence effect at 5 g/ha against KCHSC in % [4]	Post-emergence effect at 20 g/ha against KCHSC in % [4]	Post-emergence effect at 1.25 g/ha against DIGSA in % [5]	Post-emergence effect at 5 g/ha against DIGSA in % [5]	Post-emergence effect at 20 g/ha against DIGSA in % [5]	Post-emergence effect at 1.25 g/ha against ECHCG in % [6]	Post-emergence effect at 5 g/ha against ECHCG in % [6]	Post-emergence effect at 20 g/ha against LOLRI in % [7]	Post-emergence effect at 1.25 g/ha against SETVI in % [10]	Post-emergence effect at 1.25 g/ha against VERPE in % [12]	Post-emergence effect at 1.25 g/ha against VIOTR in % [13]	Post-emergence effect at 5 g/ha against VIOTR in % [13]	other results
Cn1c(C(F)(F)F)cc(=O)n(-c2cc(Oc3ccccc3OCC(=O)OCC3CC3(C)C)c(Cl)cc2F)c1=O (stereo not drawn) [I.7-9]	100%	100%	100%	100%	100%	100%	100%	90%	100%	100%	100%	100%	100%	80%	100%	90%	100%	90%	100%	100%	Post-emergence effect at 20 g/ha against ECHCG in % ([6]; 20 g/ha): 100%; Post-emergence effect at 1.25 g/ha against PHBPU in % [8]: 100%; Post-emergence effect at 5 g/ha against PHBPU in % ([8]; 5 g/ha): 100%; Post-emergence effect at 20 g/ha against PHBPU in % ([8]; 20 g/ha): 100%; Post-emergence effect at 20 g/ha against POLCO in % ([9]; 20 g/ha): 100%; Post-emergence effect at 5 g/ha against SETVI in % ([10]; 5 g/ha): 100%; Post-emergence effect at 20 g/ha against SETVI in % ([10]; 20 g/ha): 100%; Post-emergence effect at 20 g/ha against MATIN in % [11]: 100%; Post-emergence effect at 5 g/ha against VERPE in % ([12]; 5 g/ha): 100%; Post-emergence effect at 20 g/ha against VERPE in % ([12]; 20 g/ha): 100%; Post-emergence effect at 20 g/ha against VIOTR in % ([13]; 20 g/ha): 100%; Post-emergence effect at 1.25 g/ha against TRZAS in % [14, 15]: 20%
Cn1c(C(F)(F)F)cc(=O)n(-c2cc(Oc3ccccc3OCC(=O)OCC3CCC3)c(Cl)cc2F)c1=O [I.7-10, Cyclobutylmethyl (2-{2-chloro-4-fluoro-5-[3-methyl-2,6-dioxo-4-(trifluoromethyl)-3,6-dihydropyrimidin-1(2H)-yl]phenoxy}phenoxy)acetate]	100%							100%	100%	100%	80%	100%	100%	100%	100%	100%	100%	100%	100%	100%	pest or weed control at 5 g/ha ([1]; Abutilon theophrasti, 504 h, 5 g/ha, read-out: Post-emergence effect at 5 g/ha against ABUTH in %): 100%; pest or weed control at 20 g/ha ([1]; Abutilon theophrasti, 504 h, 20 g/ha, read-out: Post-emergence effect at 20 g/ha against ABUTH in %): 100%; pest or weed control at 20 g/ha ([2]; Alopecurus myosuroides, 504 h, read-out: Post-emergence effect at 20 g/ha against ALOMY in %): 100%; pest or weed control at 1.25 g/ha ([3]; Amaranthus retroflexus, 504 h, 1.25 g/ha, read-out: Post-emergence effect at 1.25 g/ha against AMARE in %): 100%; pest or weed control at 5 g/ha ([3]; Amaranthus retroflexus, 504 h, 5 g/ha, read-out: Post-emergence effect at 5 g/ha against AMARE in %): 100%; pest or weed control at 20 g/ha ([3]; Amaranthus retroflexus, 504 h, 20 g/ha, read-out: Post-emergence effect at 20 g/ha against AMARE in %): 100%; pest or weed control at 20 g/ha ([6]; Echinochloa crus-galli, 504 h, 20 g/ha, read-out: Post-emergence effect at 20 g/ha against ECHCG in %): 100%; pest or weed control at 5 g/ha ([8]; Ipomoea purpurea, 504 h, 5 g/ha, read-out: Post-emergence effect at 5 g/ha against PHBPU in %): 100%; pest or weed control at 20 g/ha ([8]; Ipomoea purpurea, 504 h, 20 g/ha, read-out: Post-emergence effect at 20 g/ha against PHBPU in %): 100%; Post-emergence effect at 1.25 g/ha against POLCO in % ([9]; 1.25 g/ha): 100%; pest or weed control at 5 g/ha ([9]; Fallopia convolvulus, 504 h, 5 g/ha, read-out: Post-emergence effect at 5 g/ha against POLCO in %): 100%; pest or weed control at 20 g/ha ([9]; Fallopia convolvulus, 504 h, 20 g/ha, read-out: Post-emergence effect at 20 g/ha against POLCO in %): 100%; pest or weed control at 5 g/ha ([10]; Setaria viridis, 504 h, 5 g/ha, read-out: Post-emergence effect at 5 g/ha against SETVI in %): 100%; pest or weed control at 20 g/ha ([10]; Setaria viridis, 504 h, 20 g/ha, read-out: Post-emergence effect at 20 g/ha against SETVI in %): 100%; pest or weed control at 20 g/ha ([11]; Tripleurospermum inodorum, 504 h, read-out: Post-emergence effect at 20 g/ha against MATIN in %): 100%; pest or weed control at 5 g/ha ([12]; Veronica persica, 504 h, 5 g/ha, read-out: Post-emergence effect at 5 g/ha against VERPE in %): 100%; pest or weed control at 20 g/ha ([12]; Veronica persica, 504 h, 20 g/ha, read-out: Post-emergence effect at 20 g/ha against VERPE in %): 100%; pest or weed control at 20 g/ha ([13]; Viola tricolor, 504 h, 20 g/ha, read-out: Post-emergence effect at 20 g/ha against VIOTR in %): 100%; Post-emergence effect at 1.25 g/ha against TRZAS in % ([14]; Triticum aestivum, in vivo): 20%
Cn1c(C(F)(F)F)cc(=O)n(-c2cc(Oc3ccccc3OCC(=O)OCC3CC34CCC4)c(Cl)cc2F)c1=O (stereo not drawn) [I.7-19]	100%	100%	100%	100%	100%	100%	100%	80%	80%	100%		100%	100%		100%	80%	100%	90%	100%	100%	Post-emergence effect at 20 g/ha against ECHCG in % ([6]; 20 g/ha): 100%; Post-emergence effect at 1.25 g/ha against PHBPU in % [8]: 80%; Post-emergence effect at 5 g/ha against PHBPU in % ([8]; 5 g/ha): 100%; Post-emergence effect at 20 g/ha against PHBPU in % ([8]; 20 g/ha): 100%; Post-emergence effect at 5 g/ha against POLCO in % ([9]; 5 g/ha): 100%; Post-emergence effect at 20 g/ha against POLCO in % ([9]; 20 g/ha): 100%; Post-emergence effect at 5 g/ha against SETVI in % ([10]; 5 g/ha): 100%; Post-emergence effect at 20 g/ha against SETVI in % ([10]; 20 g/ha): 100%; Post-emergence effect at 20 g/ha against MATIN in % [11]: 100%; Post-emergence effect at 5 g/ha against VERPE in % ([12]; 5 g/ha): 100%; Post-emergence effect at 20 g/ha against VERPE in % ([12]; 20 g/ha): 100%; Post-emergence effect at 20 g/ha against VIOTR in % ([13]; 20 g/ha): 100%; Post-emergence effect at 1.25 g/ha against TRZAS in % [14, 15]: 10%
